Results on two compounds are retold here after article PMC8745332, “Synthesis, Molecular Docking and Biological Characterization of Pyrazine Linked 2-Aminobenzamides as New Class I Selective Histone Deacetylase (HDAC) Inhibitors with Anti-Leukemic Activity” (International Journal of Molecular Sciences, 2021).

For one experiment, the system named is MV4-11 cells. The experiment in a line: Apoptosis in MV4-11 cells, annexin-V-FITC/PI flow cytometry. It is filed as cell-based, human. The following applies: for induction of early and late apoptosis: 0.5 µM, 48 h; for IC50: Homo sapiens. On the procedure: We measured the induction of early (increased exposure of phosphatidylserine on the cell surface and therefore positive staining for annexin-V-FITC) and late apoptosis (positivity for annexin-V and accumulation of propidium iodide, PI) by flow cytometry.
All leukemic cells were kept in RPMI-1640 medium supplemented with 10% FBS and 1%penicillin/streptomycin (Sigma-Aldrich, Taufkirchen, Germany) under standard culture conditions at 37 °C and a 5% CO2 humidified atmosphere. Cells were authenticated as mentioned by us.

The target of the next experiment is T1, human HDAC1 (Homo sapiens, UniProt Q13547).
T1 construct: purchased ENZO Life Sciences AG (Lausen, CH)
As to the kind of experiment: In vitro HDAC1 inhibition assay, fluorogenic p53 peptide Ac-RHKK(Acetyl)-AMC. Format: biochemical. The following applies: 10 nM HDAC1, 20 µM substrate, 90 min, 37 °C. The protocol:
Recombinant human HDAC1, HDAC2, and HDAC3/NCOR1 were purchased from ENZO Life Sciences AG (Lausen, CH). Recombinant human HDAC 4, HDAC5, HDAC7, HDAC9 and HDAC11 were produced by Barinka lab in Prague, as described before. Recombinant human HDAC8 was produced by Romier et al. (IGBMC, Univ. Strasbourg), as described in [55].
The in vitro testing on recombinant HDACs 1-3 were performed with a fluorogenic peptide derived from p53 (Ac-RHKK(Acetyl)-AMC). The measurements were performed in an assay buffer (50 mM Hepes, 150 mM NaCl, 5 mM MgCl2, 1 mM TCEP and 0.2 mg/mL BSA, pH 7.4 adjusted with NaOH) at 37 °C. Inhibitors at different concentrations were incubated with 10 nM HDAC1, 3 nM HDAC2 or 3 nM HDAC3 (final concentration) for at least 5 min. The reaction was started with the addition of the fluorogenic substrate (20 µM final concentration) and incubated for 30 min for HDAC2 and HDAC3 and 90 min for HDAC1. The reaction was stopped with a solution of 1 mg/mL trypsin and 20 µM SAHA in 1 mM HCl and incubated for 1 h at 37 °C. […] The received fluorescence intensities were normalized with uninhibited reaction as 100% and the reaction without enzyme as 0%. A nonlinear regression analysis was done to determine the IC50 value.

The next experiment concerns the target T2, HDAC6 (Homo sapiens, UniProt Q9UBN7).
T2 construct: made in house
T2 sequence (Q9UBN7 1-1215): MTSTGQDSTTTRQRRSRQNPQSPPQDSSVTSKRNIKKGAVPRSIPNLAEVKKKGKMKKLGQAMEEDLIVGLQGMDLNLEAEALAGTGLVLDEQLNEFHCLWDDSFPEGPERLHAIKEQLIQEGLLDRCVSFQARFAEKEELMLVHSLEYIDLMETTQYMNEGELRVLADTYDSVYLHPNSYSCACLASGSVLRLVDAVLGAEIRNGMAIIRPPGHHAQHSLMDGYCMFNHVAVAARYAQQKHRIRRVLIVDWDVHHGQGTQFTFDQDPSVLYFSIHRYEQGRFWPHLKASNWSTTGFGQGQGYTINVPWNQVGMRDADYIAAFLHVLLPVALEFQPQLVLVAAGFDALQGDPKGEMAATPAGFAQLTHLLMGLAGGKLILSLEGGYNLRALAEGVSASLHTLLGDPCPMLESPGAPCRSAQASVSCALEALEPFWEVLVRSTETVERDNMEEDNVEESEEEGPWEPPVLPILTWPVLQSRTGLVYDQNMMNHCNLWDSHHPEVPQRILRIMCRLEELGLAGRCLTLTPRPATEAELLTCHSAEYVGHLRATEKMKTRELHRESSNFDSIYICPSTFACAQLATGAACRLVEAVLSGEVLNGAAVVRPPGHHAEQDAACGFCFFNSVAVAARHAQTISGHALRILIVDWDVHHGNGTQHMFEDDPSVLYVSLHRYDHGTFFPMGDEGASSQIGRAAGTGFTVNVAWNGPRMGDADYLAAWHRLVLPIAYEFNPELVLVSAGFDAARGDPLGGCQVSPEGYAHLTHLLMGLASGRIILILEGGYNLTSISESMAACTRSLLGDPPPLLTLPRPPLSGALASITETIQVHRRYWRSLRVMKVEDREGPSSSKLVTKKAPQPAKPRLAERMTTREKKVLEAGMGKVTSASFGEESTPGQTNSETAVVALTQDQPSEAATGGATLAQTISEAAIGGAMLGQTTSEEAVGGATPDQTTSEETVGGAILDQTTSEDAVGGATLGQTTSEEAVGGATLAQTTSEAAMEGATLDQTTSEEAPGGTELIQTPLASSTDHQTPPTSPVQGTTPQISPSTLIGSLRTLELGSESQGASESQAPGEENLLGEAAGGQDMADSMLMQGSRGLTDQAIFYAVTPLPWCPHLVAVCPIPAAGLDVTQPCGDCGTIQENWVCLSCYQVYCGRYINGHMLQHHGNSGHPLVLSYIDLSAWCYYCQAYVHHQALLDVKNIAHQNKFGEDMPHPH
As to the kind of experiment: HDAC6 inhibition (HDAC subtype panel). Format: biochemical.

SMILES strings stand for the structures. Like-named read-outs stand apart in the source and are kept apart here.

T1 sequence (Q13547 whole entry): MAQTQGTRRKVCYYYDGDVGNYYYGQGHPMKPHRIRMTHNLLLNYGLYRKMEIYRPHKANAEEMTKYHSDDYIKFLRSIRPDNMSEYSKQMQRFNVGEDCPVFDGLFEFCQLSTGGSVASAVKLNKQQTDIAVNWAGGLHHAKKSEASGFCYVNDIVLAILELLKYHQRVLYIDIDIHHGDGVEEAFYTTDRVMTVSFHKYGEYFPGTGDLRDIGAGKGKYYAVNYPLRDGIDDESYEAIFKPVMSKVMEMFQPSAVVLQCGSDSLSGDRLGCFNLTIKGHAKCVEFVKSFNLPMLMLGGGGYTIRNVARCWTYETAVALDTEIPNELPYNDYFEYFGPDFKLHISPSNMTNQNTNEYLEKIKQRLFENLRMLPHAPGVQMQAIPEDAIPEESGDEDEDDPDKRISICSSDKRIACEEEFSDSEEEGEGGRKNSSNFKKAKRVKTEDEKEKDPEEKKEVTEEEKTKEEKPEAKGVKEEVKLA

`Cn1cc(CCN2CCN(c3cnc(C(=O)Nc4cc(-c5cccs5)ccc4N)cn3)CC2)c2ccccc21` [21a, N-(2-Amino-5-(thiophen-2-yl)phenyl)-5-(4-(2-(1-methyl-1H-indol-3-yl)ethyl)piperazin-1-yl)pyrazine-2-carboxamide]: the “induction of early and late apoptosis” value with MV4-11 cells (MV4-11 cells) was “slightly increased the number of MV4-11 cells in late apoptosis”. Also, the IC50 on human HDAC1 is 0.26 ± 0.01 µM; at HDAC6, greater than 20 µM.
Consider `Nc1ccccc1NC(=O)c1cnc(N2CCN(Cc3c[nH]c4ccccc34)CC2)cn1` [19f, 5-(4-((1H-indol-3-yl)methyl)piperazin-1-yl)-N-(2-aminophenyl)pyrazine-2-carboxamide], for which the IC50 in the experiment with MV4-11 cells (MV4-11, 48 h, read-out: IC50 (apoptosis, annexin-V/PI)) is 194 nM; with MV4-11 cells (MV4-11 cells, 24 h, annexin-V/PI, read-out: IC50 for apoptosis induction), 255 nM; in the experiment on MV4-11 cells (MV4-11 cells, after 48 h, read-out: IC50 values for growth inhibition), roughly 300 nM; at human HDAC1 it was 0.13 ± 0.01 µM; against HDAC6 it was greater than 20 µM. In addition, in the experiment with MV4-11 cells (MV4-11 cells), the “induction of early and late apoptosis” value is “early and late apoptosis in nearly the whole MV4-11 cell population”. For the same compound, the “fold more effective than MS-275 (apoptosis induction)” value in the experiment on MV4-11 cells (MV4-11 cells, versus MS-275) is reported as “at least 4 fold”.
